This is an account of results in the OligoGym collection.

Oligonucleotides are given in HELM: sugar(base)linkage, 5' to 3'; d 2'-deoxyribose, r ribose, m 2'-O-methylribose, p phosphate. ss, as = sense and antisense strand
Note: test concentration or dose not given here.

The data set has as its target UBE2K. As to the kind of experiment: reporter assay of Huesken 2005. The settings on record: siRNA.
“RNA1{r(A)p.r(A)p.r(A)p.r(U)p.r(C)p.r(C)p.r(C)p.r(G)p.r(A)p.r(A)p.r(A)p.r(U)p.r(G)p.r(U)p.r(U)p.r(C)p.r(A)p.r(A)p.r(A)p.d(T)p.d(T)}|RNA2{r(U)p.r(U)p.r(U)p.r(G)p.r(A)p.r(A)p.r(C)p.r(A)p.r(U)p.r(U)p.r(U)p.r(C)p.r(G)p.r(G)p.r(G)p.r(A)p.r(U)p.r(U)p.r(U)p.d(T)p.d(G)}$$$RNA1{StrandType:ss}|RNA2{StrandType:as}$”: the normalised inhibition (eCFP-eYFP dual reporter) was 73.8%. As for “RNA1{r(A)p.r(A)p.r(G)p.r(G)p.r(A)p.r(G)p.r(G)p.r(A)p.r(A)p.r(G)p.r(A)p.r(U)p.r(A)p.r(C)p.r(C)p.r(A)p.r(A)p.r(C)p.r(U)p.d(T)p.d(T)}|RNA2{r(A)p.r(G)p.r(U)p.r(U)p.r(G)p.r(G)p.r(U)p.r(A)p.r(U)p.r(C)p.r(U)p.r(U)p.r(C)p.r(C)p.r(U)p.r(C)p.r(C)p.r(U)p.r(U)p.d(C)p.d(A)}$$$RNA1{StrandType:ss}|RNA2{StrandType:as}$”, the figure is 68.1%. For the substance “RNA1{r(A)p.r(A)p.r(G)p.r(U)p.r(A)p.r(G)p.r(A)p.r(U)p.r(C)p.r(U)p.r(U)p.r(G)p.r(U)p.r(A)p.r(G)p.r(A)p.r(U)p.r(G)p.r(A)p.d(T)p.d(T)}|RNA2{r(U)p.r(C)p.r(A)p.r(U)p.r(C)p.r(U)p.r(A)p.r(C)p.r(A)p.r(A)p.r(G)p.r(A)p.r(U)p.r(C)p.r(U)p.r(A)p.r(C)p.r(U)p.r(U)p.d(T)p.d(A)}$$$RNA1{StrandType:ss}|RNA2{StrandType:as}$”, the normalised inhibition (eCFP-eYFP dual reporter) stood at 88.9%.

“RNA1{r(A)p.r(A)p.r(U)p.r(A)p.r(G)p.r(C)p.r(A)p.r(G)p.r(G)p.r(A)p.r(C)p.r(C)p.r(U)p.r(C)p.r(C)p.r(A)p.r(G)p.r(A)p.r(C)p.d(T)p.d(T)}|RNA2{r(G)p.r(U)p.r(C)p.r(U)p.r(G)p.r(G)p.r(A)p.r(G)p.r(G)p.r(U)p.r(C)p.r(C)p.r(U)p.r(G)p.r(C)p.r(U)p.r(A)p.r(U)p.r(U)p.d(T)p.d(C)}$$$RNA1{StrandType:ss}|RNA2{StrandType:as}$” yielded a normalised inhibition (eCFP-eYFP dual reporter) of 56.1%.

“RNA1{r(A)p.r(C)p.r(A)p.r(G)p.r(G)p.r(A)p.r(U)p.r(G)p.r(C)p.r(U)p.r(G)p.r(U)p.r(A)p.r(G)p.r(U)p.r(A)p.r(G)p.r(C)p.r(A)p.d(T)p.d(T)}|RNA2{r(U)p.r(G)p.r(C)p.r(U)p.r(A)p.r(C)p.r(U)p.r(A)p.r(C)p.r(A)p.r(G)p.r(C)p.r(A)p.r(U)p.r(C)p.r(C)p.r(U)p.r(G)p.r(U)p.d(G)p.d(G)}$$$RNA1{StrandType:ss}|RNA2{StrandType:as}$” displayed a normalised inhibition (eCFP-eYFP dual reporter) of 89.9%.

With “RNA1{r(A)p.r(C)p.r(U)p.r(A)p.r(A)p.r(A)p.r(A)p.r(U)p.r(A)p.r(U)p.r(G)p.r(G)p.r(C)p.r(A)p.r(U)p.r(C)p.r(C)p.r(U)p.r(A)p.d(T)p.d(T)}|RNA2{r(U)p.r(A)p.r(G)p.r(G)p.r(A)p.r(U)p.r(G)p.r(C)p.r(C)p.r(A)p.r(U)p.r(A)p.r(U)p.r(U)p.r(U)p.r(U)p.r(A)p.r(G)p.r(U)p.d(G)p.d(A)}$$$RNA1{StrandType:ss}|RNA2{StrandType:as}$”, the normalised inhibition (eCFP-eYFP dual reporter) was 76%. With “RNA1{r(A)p.r(C)p.r(U)p.r(A)p.r(U)p.r(U)p.r(G)p.r(G)p.r(C)p.r(A)p.r(G)p.r(C)p.r(U)p.r(G)p.r(C)p.r(A)p.r(G)p.r(A)p.r(G)p.d(T)p.d(T)}|RNA2{r(C)p.r(U)p.r(C)p.r(U)p.r(G)p.r(C)p.r(A)p.r(G)p.r(C)p.r(U)p.r(G)p.r(C)p.r(C)p.r(A)p.r(A)p.r(U)p.r(A)p.r(G)p.r(U)p.d(G)p.d(C)}$$$RNA1{StrandType:ss}|RNA2{StrandType:as}$”, the normalised inhibition (eCFP-eYFP dual reporter) is 62%. In the case of “RNA1{r(A)p.r(G)p.r(A)p.r(A)p.r(A)p.r(C)p.r(A)p.r(U)p.r(A)p.r(C)p.r(C)p.r(C)p.r(A)p.r(U)p.r(U)p.r(U)p.r(A)p.r(A)p.r(U)p.d(T)p.d(T)}|RNA2{r(A)p.r(U)p.r(U)p.r(A)p.r(A)p.r(A)p.r(U)p.r(G)p.r(G)p.r(G)p.r(U)p.r(A)p.r(U)p.r(G)p.r(U)p.r(U)p.r(U)p.r(C)p.r(U)p.d(G)p.d(G)}$$$RNA1{StrandType:ss}|RNA2{StrandType:as}$”, the normalised inhibition (eCFP-eYFP dual reporter) was determined as 72.3%. Under “RNA1{r(A)p.r(G)p.r(A)p.r(C)p.r(A)p.r(C)p.r(A)p.r(C)p.r(C)p.r(A)p.r(U)p.r(A)p.r(U)p.r(G)p.r(A)p.r(A)p.r(G)p.r(G)p.r(A)p.d(T)p.d(T)}|RNA2{r(U)p.r(C)p.r(C)p.r(U)p.r(U)p.r(C)p.r(A)p.r(U)p.r(A)p.r(U)p.r(G)p.r(G)p.r(U)p.r(G)p.r(U)p.r(G)p.r(U)p.r(C)p.r(U)p.d(G)p.d(G)}$$$RNA1{StrandType:ss}|RNA2{StrandType:as}$” stands 81%; under “RNA1{r(A)p.r(G)p.r(A)p.r(U)p.r(G)p.r(A)p.r(U)p.r(C)p.r(C)p.r(A)p.r(C)p.r(A)p.r(G)p.r(G)p.r(A)p.r(U)p.r(G)p.r(C)p.r(U)p.d(T)p.d(T)}|RNA2{r(A)p.r(G)p.r(C)p.r(A)p.r(U)p.r(C)p.r(C)p.r(U)p.r(G)p.r(U)p.r(G)p.r(G)p.r(A)p.r(U)p.r(C)p.r(A)p.r(U)p.r(C)p.r(U)p.d(G)p.d(G)}$$$RNA1{StrandType:ss}|RNA2{StrandType:as}$”, 68%; under “RNA1{r(A)p.r(G)p.r(C)p.r(A)p.r(A)p.r(A)p.r(U)p.r(C)p.r(A)p.r(G)p.r(U)p.r(A)p.r(C)p.r(A)p.r(A)p.r(A)p.r(C)p.r(A)p.r(A)p.d(T)p.d(T)}|RNA2{r(U)p.r(U)p.r(G)p.r(U)p.r(U)p.r(U)p.r(G)p.r(U)p.r(A)p.r(C)p.r(U)p.r(G)p.r(A)p.r(U)p.r(U)p.r(U)p.r(G)p.r(C)p.r(U)p.d(A)p.d(C)}$$$RNA1{StrandType:ss}|RNA2{StrandType:as}$”, 77.8%. “RNA1{r(A)p.r(G)p.r(G)p.r(A)p.r(C)p.r(C)p.r(U)p.r(C)p.r(C)p.r(A)p.r(G)p.r(A)p.r(C)p.r(A)p.r(C)p.r(A)p.r(C)p.r(C)p.r(A)p.d(T)p.d(T)}|RNA2{r(U)p.r(G)p.r(G)p.r(U)p.r(G)p.r(U)p.r(G)p.r(U)p.r(C)p.r(U)p.r(G)p.r(G)p.r(A)p.r(G)p.r(G)p.r(U)p.r(C)p.r(C)p.r(U)p.d(G)p.d(C)}$$$RNA1{StrandType:ss}|RNA2{StrandType:as}$” had a normalised inhibition (eCFP-eYFP dual reporter) of 74.6%.

Substance “RNA1{r(A)p.r(G)p.r(G)p.r(A)p.r(G)p.r(A)p.r(A)p.r(A)p.r(U)p.r(A)p.r(G)p.r(C)p.r(A)p.r(G)p.r(G)p.r(A)p.r(C)p.r(C)p.r(U)p.d(T)p.d(T)}|RNA2{r(A)p.r(G)p.r(G)p.r(U)p.r(C)p.r(C)p.r(U)p.r(G)p.r(C)p.r(U)p.r(A)p.r(U)p.r(U)p.r(U)p.r(C)p.r(U)p.r(C)p.r(C)p.r(U)p.d(C)p.d(T)}$$$RNA1{StrandType:ss}|RNA2{StrandType:as}$” came in with a normalised inhibition (eCFP-eYFP dual reporter) of 69.4%. As for “RNA1{r(A)p.r(G)p.r(G)p.r(A)p.r(G)p.r(G)p.r(A)p.r(A)p.r(G)p.r(A)p.r(U)p.r(A)p.r(C)p.r(C)p.r(A)p.r(A)p.r(C)p.r(U)p.r(A)p.d(T)p.d(T)}|RNA2{r(U)p.r(A)p.r(G)p.r(U)p.r(U)p.r(G)p.r(G)p.r(U)p.r(A)p.r(U)p.r(C)p.r(U)p.r(U)p.r(C)p.r(C)p.r(U)p.r(C)p.r(C)p.r(U)p.d(T)p.d(C)}$$$RNA1{StrandType:ss}|RNA2{StrandType:as}$”, the figure is 75.4%.
